Source: patent US11918667B2, “Zirconium-based cluster as an antiperspirant and deodorant active” (Colgate-Palmolive Company, priority 2017, dated 2024)

Key:
[1] = pH of zirconium oxychloride / arginine solutions; assay type: physicochemical; conditions: 1% zirconium oxychloride with varied arginine, 10 g samples, incubated 1 day at 50° C., cooled to room temperature
Description: Samples were prepared according to Table 1. Water was added to zirconium oxychloride (ZrOCl2.8H2O, MW 322.25) in a glass jar to yield a clear solution containing 1% zirconium oxychloride. Under stirring, L-arginine was slowly added to prevent clumping of arginine as well as large fluctuations in localized pH values. The solutions were incubated for 1 day at 50° C. Then the solutions were cooled to room temperature. Solid gel was formed in samples with the molar ratio of arginine to zirconium oxychloride of 2-4.
A 100 g batch was prepared according to Table 2. 1% w/w zirconium oxychloride (ZrOCl2.8H2O, MW 322.25) and arginine were mixed in aqueous solution with the molar ratio of arginine to zirconium oxychloride of 1:1.
The zirconium oxychloride cluster was prepared as described in Example 1. The prepared zirconium oxychloride cluster was purified by gel permeability chromatograph (GPC). GPC column was prepared using Bio-Rad P2 gel with 5 μm particle size. Approximately 10 mL of prepared solution was filtered (0.45 μm) and loaded on the column using a HPLC pump at 0.2 mL/min. The mobile phase of the GPC chromatography was deionized water. Elution fractions were collected in intervals and monitored using SEC-RI. […] The pH of the GPC fraction (1160-1300 min) was 4.5. […] 10 g of this fraction was freeze dried to obtain purified powder for subsequent PXRD analysis.

[2] = cited from earlier work

Q: For [Cl-].[Cl-].[O]=[Zr+2] [Zr, zirconium oxychloride], which pH [1] is on record?
A: Its pH is 1.39.

Q: What about the pH of solution ([2]; solution of zirconium oxychloride which is effective as an antiperspirant (background)) of the same compound?
A: The pH of solution was “about 0.8”.

Q: And the pH value ([2]; zirconium oxychloride alone (general statement))?
A: The pH value was under 2.
